Source: the kinase profiling compilation of Christmann-Franck et al. (2016)
Values joined by “and” are separate entries in the source; they are usually repeats but may differ in a detail not shown here. Identical values can stand only once.

Tests used:
Test in all cases: radiometric filter-binding kinase assay, Kinase HotSpot
PLK1 (human) = PLK1 (human) (UniProt P53350); conditions: compound 0.5 µM; ATP 10 µM
MAP3K11 (human) = MAP3K11 (human) (UniProt Q16584); conditions: compound 0.5 µM; ATP 10 µM
LYN (human) = LYN (human) (UniProt P07948); conditions: compound 0.5 µM; ATP 10 µM
CAMKK2 (human) = CAMKK2 (human) (UniProt Q96RR4); conditions: compound 0.5 µM; ATP 10 µM
CSF1R (human) = CSF1R (human) (UniProt P07333); conditions: compound 0.5 µM; ATP 10 µM
RAF1 (human) = RAF1 (human) (UniProt P04049); conditions: compound 0.5 µM; ATP 10 µM
EPHA7 (human) = EPHA7 (human) (UniProt Q15375); conditions: compound 0.5 µM; ATP 10 µM
AKT1 (human) = AKT1 (human) (UniProt P31749); conditions: compound 0.5 µM; ATP 10 µM
CAMKK1 (human) = CAMKK1 (human) (UniProt Q8N5S9); conditions: compound 0.5 µM; ATP 10 µM
EPHB4 (human) = EPHB4 (human) (UniProt P54760); conditions: compound 0.5 µM; ATP 10 µM
MAP3K2 (human) = MAP3K2 (human) (UniProt Q9Y2U5); conditions: compound 0.5 µM; ATP 10 µM
FGFR4 (human) = FGFR4 (human) (UniProt P22455); conditions: compound 0.5 µM; ATP 10 µM
CDK1 CCNB1 (human) = CDK1 CCNB1 (human) (UniProt P06493+P14635); conditions: compound 0.5 µM
TAOK1 (human) = TAOK1 (human) (UniProt Q7L7X3); conditions: compound 0.5 µM; ATP 10 µM
SIK2 (human) = SIK2 (human) (UniProt Q9H0K1); conditions: compound 0.5 µM; ATP 10 µM
PRKACA (human) = PRKACA (human) (UniProt P17612); conditions: compound 0.5 µM
ACVRL1 (human) = ACVRL1 (human) (UniProt P37023); conditions: compound 0.5 µM; ATP 10 µM
MAPK1 (human) = MAPK1 (human) (UniProt P28482); conditions: compound 0.5 µM; ATP 10 µM
MAP2K1 (human) = MAP2K1 (human) (UniProt Q02750); conditions: compound 0.5 µM; ATP 10 µM
PHKG1 (human) = PHKG1 (human) (UniProt Q16816); conditions: compound 0.5 µM; ATP 10 µM
MARK4 (human) = MARK4 (human) (UniProt Q96L34); conditions: compound 0.5 µM; ATP 10 µM
ALK (human) = ALK (human) (UniProt Q9UM73); conditions: compound 0.5 µM; ATP 10 µM
MAP3K14 (human) = MAP3K14 (human) (UniProt Q99558); conditions: compound 0.5 µM; ATP 10 µM
MAPK9 (human) = MAPK9 (human) (UniProt P45984); conditions: compound 0.5 µM; ATP 10 µM
PIM3 (human) = PIM3 (human) (UniProt Q86V86); conditions: compound 0.5 µM; ATP 10 µM
EPHA1 (human) = EPHA1 (human) (UniProt P21709); conditions: compound 0.5 µM; ATP 10 µM
MAP2K2 (human) = MAP2K2 (human) (UniProt P36507); conditions: compound 0.5 µM; ATP 10 µM
ITK (human) = ITK (human) (UniProt Q08881); conditions: compound 0.5 µM; ATP 10 µM
PIM1 (human) = PIM1 (human) (UniProt P11309); conditions: compound 0.5 µM; ATP 10 µM
PTK2B (human) = PTK2B (human) (UniProt Q14289); conditions: compound 0.5 µM; ATP 10 µM
EPHB3 (human) = EPHB3 (human) (UniProt P54753); conditions: compound 0.5 µM; ATP 10 µM
DCLK2 (human) = DCLK2 (human) (UniProt Q8N568); conditions: compound 0.5 µM; ATP 10 µM
HIPK1 (human) = HIPK1 (human) (UniProt Q86Z02); conditions: compound 0.5 µM; ATP 10 µM
MINK1 (human) = MINK1 (human) (UniProt Q8N4C8); conditions: compound 0.5 µM; ATP 10 µM
BRSK1 (human) = BRSK1 (human) (UniProt Q8TDC3); conditions: compound 0.5 µM; ATP 10 µM
DSTYK (human) = DSTYK (human) (UniProt Q6XUX3); conditions: compound 0.5 µM; ATP 10 µM
OXSR1 (human) = OXSR1 (human) (UniProt O95747); conditions: compound 0.5 µM; ATP 10 µM
BLK (human) = BLK (human) (UniProt P51451); conditions: compound 0.5 µM; ATP 10 µM
SGK2 (human) = SGK2 (human) (UniProt Q9HBY8); conditions: compound 0.5 µM; ATP 10 µM
CDK5 CDK5R1 p25 (human) = CDK5 CDK5R1 p25 (human) (UniProt Q00535+Q15078); conditions: compound 0.5 µM
GRK4 (human) = GRK4 (human) (UniProt P32298); conditions: compound 0.5 µM; ATP 10 µM
NEK6 (human) = NEK6 (human) (UniProt Q9HC98); conditions: compound 0.5 µM; ATP 10 µM

EPHB3 (human), sequence (P54753 whole entry, looked up): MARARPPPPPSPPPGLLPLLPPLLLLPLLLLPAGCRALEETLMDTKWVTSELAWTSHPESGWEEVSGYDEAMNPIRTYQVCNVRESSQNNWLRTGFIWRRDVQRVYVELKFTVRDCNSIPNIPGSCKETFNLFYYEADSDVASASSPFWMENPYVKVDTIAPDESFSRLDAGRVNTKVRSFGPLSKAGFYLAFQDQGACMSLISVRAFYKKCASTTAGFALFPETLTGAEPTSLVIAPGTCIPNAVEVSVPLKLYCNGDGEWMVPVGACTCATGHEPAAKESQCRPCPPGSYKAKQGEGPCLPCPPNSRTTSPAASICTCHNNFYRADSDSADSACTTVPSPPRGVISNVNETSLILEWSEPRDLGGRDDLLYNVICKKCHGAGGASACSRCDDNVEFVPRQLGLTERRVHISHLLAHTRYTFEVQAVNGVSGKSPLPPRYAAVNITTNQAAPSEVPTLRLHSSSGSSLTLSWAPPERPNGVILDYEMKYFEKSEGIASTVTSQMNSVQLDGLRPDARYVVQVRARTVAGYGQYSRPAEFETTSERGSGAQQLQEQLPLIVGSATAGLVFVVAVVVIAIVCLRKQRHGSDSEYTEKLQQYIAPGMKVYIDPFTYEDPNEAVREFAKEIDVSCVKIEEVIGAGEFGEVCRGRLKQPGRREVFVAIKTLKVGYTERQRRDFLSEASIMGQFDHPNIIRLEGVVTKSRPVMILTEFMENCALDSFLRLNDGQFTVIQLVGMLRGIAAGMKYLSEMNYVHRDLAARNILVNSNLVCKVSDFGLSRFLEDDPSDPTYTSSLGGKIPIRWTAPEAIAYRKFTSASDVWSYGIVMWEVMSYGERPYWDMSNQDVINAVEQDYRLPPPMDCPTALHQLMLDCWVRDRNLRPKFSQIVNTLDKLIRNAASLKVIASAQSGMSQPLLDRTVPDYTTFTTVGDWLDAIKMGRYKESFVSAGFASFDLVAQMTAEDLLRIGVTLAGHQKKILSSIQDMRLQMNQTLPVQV
BRSK1 (human), sequence (Q8TDC3 whole entry, looked up): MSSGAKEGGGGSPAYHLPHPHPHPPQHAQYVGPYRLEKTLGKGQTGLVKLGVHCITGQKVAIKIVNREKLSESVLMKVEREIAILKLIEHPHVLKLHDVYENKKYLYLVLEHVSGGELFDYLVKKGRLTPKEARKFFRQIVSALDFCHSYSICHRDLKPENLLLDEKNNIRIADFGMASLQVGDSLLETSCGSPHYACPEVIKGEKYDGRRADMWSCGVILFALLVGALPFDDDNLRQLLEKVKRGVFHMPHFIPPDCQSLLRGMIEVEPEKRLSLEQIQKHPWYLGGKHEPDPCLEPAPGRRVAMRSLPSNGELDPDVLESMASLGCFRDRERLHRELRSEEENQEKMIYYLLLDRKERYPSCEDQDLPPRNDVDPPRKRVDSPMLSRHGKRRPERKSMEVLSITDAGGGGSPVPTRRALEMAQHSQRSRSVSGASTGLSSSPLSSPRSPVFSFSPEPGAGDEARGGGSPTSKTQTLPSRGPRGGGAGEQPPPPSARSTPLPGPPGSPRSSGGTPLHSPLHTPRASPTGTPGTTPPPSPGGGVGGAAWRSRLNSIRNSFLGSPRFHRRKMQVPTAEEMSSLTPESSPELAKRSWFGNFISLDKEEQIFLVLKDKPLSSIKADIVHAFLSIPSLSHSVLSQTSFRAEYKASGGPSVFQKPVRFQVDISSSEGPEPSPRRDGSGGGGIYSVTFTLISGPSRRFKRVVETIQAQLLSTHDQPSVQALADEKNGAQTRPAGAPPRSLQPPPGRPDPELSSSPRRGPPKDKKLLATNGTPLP
FGFR4 (human), sequence (P22455 whole entry, looked up): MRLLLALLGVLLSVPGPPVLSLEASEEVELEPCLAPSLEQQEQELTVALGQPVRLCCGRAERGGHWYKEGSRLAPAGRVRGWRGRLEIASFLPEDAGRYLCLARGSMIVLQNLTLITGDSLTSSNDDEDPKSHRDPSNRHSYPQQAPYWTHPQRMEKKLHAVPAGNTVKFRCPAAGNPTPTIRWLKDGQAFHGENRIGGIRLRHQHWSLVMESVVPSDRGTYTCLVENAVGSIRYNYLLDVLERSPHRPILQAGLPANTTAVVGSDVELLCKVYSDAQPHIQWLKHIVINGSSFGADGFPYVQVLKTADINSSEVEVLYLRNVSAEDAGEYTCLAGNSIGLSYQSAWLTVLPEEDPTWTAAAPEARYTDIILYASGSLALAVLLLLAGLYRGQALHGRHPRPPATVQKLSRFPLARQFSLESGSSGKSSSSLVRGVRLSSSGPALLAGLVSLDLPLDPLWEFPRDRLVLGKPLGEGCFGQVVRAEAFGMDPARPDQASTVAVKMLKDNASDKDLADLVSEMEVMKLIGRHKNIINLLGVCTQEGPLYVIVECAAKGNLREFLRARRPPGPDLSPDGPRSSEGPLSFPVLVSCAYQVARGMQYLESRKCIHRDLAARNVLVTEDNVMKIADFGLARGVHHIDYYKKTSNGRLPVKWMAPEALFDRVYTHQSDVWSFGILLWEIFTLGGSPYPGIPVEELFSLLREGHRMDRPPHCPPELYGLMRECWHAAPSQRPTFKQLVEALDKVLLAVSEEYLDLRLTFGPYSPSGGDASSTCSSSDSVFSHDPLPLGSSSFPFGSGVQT
MARK4 (human), sequence (Q96L34 whole entry, looked up): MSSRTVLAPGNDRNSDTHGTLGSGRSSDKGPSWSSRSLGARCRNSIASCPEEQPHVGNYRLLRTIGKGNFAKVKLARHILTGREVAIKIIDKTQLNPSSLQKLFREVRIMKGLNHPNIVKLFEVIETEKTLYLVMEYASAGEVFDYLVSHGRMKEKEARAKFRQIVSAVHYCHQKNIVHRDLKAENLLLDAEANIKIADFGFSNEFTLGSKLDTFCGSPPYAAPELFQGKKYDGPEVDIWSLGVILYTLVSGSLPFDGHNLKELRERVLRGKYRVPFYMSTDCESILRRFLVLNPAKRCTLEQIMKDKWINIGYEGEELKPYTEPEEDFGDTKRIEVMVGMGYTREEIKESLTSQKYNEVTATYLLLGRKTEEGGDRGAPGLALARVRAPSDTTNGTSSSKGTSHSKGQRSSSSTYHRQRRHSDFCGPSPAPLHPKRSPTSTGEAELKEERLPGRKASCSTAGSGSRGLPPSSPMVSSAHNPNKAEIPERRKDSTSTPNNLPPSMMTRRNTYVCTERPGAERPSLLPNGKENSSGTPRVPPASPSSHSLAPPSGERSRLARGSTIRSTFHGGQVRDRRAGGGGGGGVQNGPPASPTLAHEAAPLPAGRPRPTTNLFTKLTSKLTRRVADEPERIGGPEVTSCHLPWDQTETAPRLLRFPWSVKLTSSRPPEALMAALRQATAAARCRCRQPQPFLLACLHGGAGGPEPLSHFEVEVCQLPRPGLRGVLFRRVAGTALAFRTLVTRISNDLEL
RAF1 (human), sequence (P04049 whole entry, looked up): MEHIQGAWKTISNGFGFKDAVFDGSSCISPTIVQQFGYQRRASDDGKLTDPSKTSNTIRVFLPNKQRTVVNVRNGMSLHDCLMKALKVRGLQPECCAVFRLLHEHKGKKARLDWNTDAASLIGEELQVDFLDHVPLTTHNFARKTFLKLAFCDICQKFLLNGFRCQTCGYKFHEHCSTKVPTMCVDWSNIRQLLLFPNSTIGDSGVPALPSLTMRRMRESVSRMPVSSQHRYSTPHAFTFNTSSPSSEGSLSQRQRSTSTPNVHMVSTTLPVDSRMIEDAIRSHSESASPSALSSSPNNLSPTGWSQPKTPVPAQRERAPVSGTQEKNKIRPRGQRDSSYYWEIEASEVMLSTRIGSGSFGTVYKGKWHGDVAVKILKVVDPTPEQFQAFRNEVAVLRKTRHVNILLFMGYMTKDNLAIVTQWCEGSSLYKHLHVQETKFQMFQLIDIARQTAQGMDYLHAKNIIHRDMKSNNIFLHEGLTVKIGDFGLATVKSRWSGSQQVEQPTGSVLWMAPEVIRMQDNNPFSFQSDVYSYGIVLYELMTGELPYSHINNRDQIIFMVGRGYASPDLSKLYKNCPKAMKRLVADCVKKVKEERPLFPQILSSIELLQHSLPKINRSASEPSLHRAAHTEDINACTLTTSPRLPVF
PTK2B (human), sequence (Q14289 whole entry, looked up): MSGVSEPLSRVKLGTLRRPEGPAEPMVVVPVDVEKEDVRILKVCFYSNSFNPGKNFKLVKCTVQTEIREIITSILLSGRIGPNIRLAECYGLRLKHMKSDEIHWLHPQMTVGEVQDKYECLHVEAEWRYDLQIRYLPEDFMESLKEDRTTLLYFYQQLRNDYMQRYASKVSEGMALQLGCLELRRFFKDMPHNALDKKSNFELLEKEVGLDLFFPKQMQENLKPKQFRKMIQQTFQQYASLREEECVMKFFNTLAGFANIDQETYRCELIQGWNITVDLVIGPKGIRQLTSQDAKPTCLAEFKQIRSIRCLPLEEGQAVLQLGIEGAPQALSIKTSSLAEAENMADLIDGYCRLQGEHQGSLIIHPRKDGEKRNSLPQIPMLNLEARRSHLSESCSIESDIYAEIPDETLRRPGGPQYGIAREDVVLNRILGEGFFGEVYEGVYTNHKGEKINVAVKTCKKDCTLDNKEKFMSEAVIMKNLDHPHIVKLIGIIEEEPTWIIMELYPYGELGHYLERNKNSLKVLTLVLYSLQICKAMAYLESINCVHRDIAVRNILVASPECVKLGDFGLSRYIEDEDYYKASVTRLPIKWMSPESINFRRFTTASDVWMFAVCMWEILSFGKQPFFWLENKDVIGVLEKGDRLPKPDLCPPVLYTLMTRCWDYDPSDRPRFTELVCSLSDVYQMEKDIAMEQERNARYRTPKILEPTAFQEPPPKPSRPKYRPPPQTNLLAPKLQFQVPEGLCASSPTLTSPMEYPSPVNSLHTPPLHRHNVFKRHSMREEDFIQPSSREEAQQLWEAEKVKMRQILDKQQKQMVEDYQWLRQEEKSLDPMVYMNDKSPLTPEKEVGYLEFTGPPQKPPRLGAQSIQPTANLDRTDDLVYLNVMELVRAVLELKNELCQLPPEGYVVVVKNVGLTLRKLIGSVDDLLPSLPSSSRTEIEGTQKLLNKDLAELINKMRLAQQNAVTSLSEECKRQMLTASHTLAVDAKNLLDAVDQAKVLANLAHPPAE

COc1cccc(-c2cc(=O)c3ccccc3o2)c1N
residual activity (PLK1 (human)): 88.2%
residual activity (MAP3K11 (human)): 95.9%
residual activity (LYN (human)): 94.6% and 98.7%
residual activity (CAMKK2 (human)): 92.5%
residual activity (CSF1R (human)): 101%
residual activity (RAF1 (human)): 91.5%
residual activity (EPHA7 (human)): 98.6%
residual activity (AKT1 (human)): 93.8%
residual activity (CAMKK1 (human)): 98.8%
residual activity (EPHB4 (human)): 101%
residual activity (MAP3K2 (human)): 103%
residual activity (FGFR4 (human)): 104%
residual activity (CDK1 CCNB1 (human); ATP 10 µM): 99.8%
residual activity (TAOK1 (human)): 77.9%
residual activity (SIK2 (human)): 102%
residual activity (PRKACA (human); ATP 10 µM): 87.7%
residual activity (ACVRL1 (human)): 93.5%
residual activity (MAPK1 (human)): 97.1%
residual activity (MAP2K1 (human)): 69.1%
residual activity (PHKG1 (human)): 92.9%
residual activity (MARK4 (human)): 77.8%
residual activity (ALK (human)): 84.1%
residual activity (MAP3K14 (human)): 108%
residual activity (MAPK9 (human)): 89.8%
residual activity (PIM3 (human)): 90.9%
residual activity (EPHA1 (human)): 99.7%
residual activity (MAP2K2 (human)): 69.2%
residual activity (ITK (human)): 96.5%
residual activity (PIM1 (human)): 93.9%
residual activity (PTK2B (human)): 91.2%
residual activity (EPHB3 (human)): 91.9%
residual activity (DCLK2 (human)): 88.3%
residual activity (HIPK1 (human)): 104%
residual activity (MINK1 (human)): 96.2%
residual activity (BRSK1 (human)): 84.9%
residual activity (DSTYK (human)): 97.1%
residual activity (OXSR1 (human)): 91.2%
residual activity (BLK (human)): 107%
residual activity (SGK2 (human)): 95.9%
residual activity (CDK5 CDK5R1 p25 (human); ATP 10 µM): 87.5%
residual activity (GRK4 (human)): 104%
residual activity (NEK6 (human)): 102%

O=c1[nH]c2ccccc2n1C1CCN(Cc2ccc(-c3nc4cc5[nH]cnc5cc4nc3-c3ccccc3)cc2)CC1
residual activity (PLK1 (human)): 109%
residual activity (MAP3K11 (human)): 94.6%
residual activity (LYN (human)): 102% and 116%
residual activity (CAMKK2 (human)): 112%
residual activity (CSF1R (human)): 97%
residual activity (RAF1 (human)): 94.7%
residual activity (EPHA7 (human)): 109%
residual activity (AKT1 (human)): 114%
residual activity (CAMKK1 (human)): 117%
residual activity (EPHB4 (human)): 96.4%
residual activity (MAP3K2 (human)): 92.4%
residual activity (FGFR4 (human)): 97.2%
residual activity (CDK1 CCNB1 (human)): 85%
residual activity (TAOK1 (human)): 102%
residual activity (SIK2 (human)): 114%
residual activity (PRKACA (human)): 106%
residual activity (ACVRL1 (human)): 105%
residual activity (MAPK1 (human)): 112%
residual activity (MAP2K1 (human)): 96.8%
residual activity (PHKG1 (human)): 106%
residual activity (MARK4 (human)): 102%
residual activity (ALK (human)): 106%
residual activity (MAP3K14 (human)): 96.8%
residual activity (MAPK9 (human)): 91.9%
residual activity (PIM3 (human)): 106%
residual activity (EPHA1 (human)): 84.4%
residual activity (MAP2K2 (human)): 86.6%
residual activity (ITK (human)): 99.8%
residual activity (PIM1 (human)): 106%
residual activity (PTK2B (human)): 105%
residual activity (EPHB3 (human)): 104%
residual activity (DCLK2 (human)): 107%
residual activity (HIPK1 (human)): 106%
residual activity (MINK1 (human)): 103%
residual activity (BRSK1 (human)): 98.3%
residual activity (DSTYK (human)): 104%
residual activity (OXSR1 (human)): 102%
residual activity (BLK (human)): 106%
residual activity (SGK2 (human)): 112%
residual activity (CDK5 CDK5R1 p25 (human)): 96.9%
residual activity (GRK4 (human)): 104%
residual activity (NEK6 (human)): 98.2%

N#C/C(=C1/Nc2ccccc2S1)c1ccnc(NCCc2cccnc2)n1
residual activity (PLK1 (human)): 91.4%
residual activity (MAP3K11 (human)): 72.2%
residual activity (LYN (human)): 96.2% and 96.4%
residual activity (CAMKK2 (human)): 80.4%
residual activity (CSF1R (human)): 99.2%
residual activity (RAF1 (human)): 84%
residual activity (EPHA7 (human)): 99.4%
residual activity (AKT1 (human)): 104%
residual activity (CAMKK1 (human)): 101%
residual activity (EPHB4 (human)): 99.7%
residual activity (MAP3K2 (human)): 98.1%
residual activity (FGFR4 (human)): 101%
residual activity (CDK1 CCNB1 (human); ATP 10 µM): 96.8%
residual activity (TAOK1 (human)): 98%
residual activity (SIK2 (human)): 96.4%
residual activity (PRKACA (human); ATP 10 µM): 103%
residual activity (ACVRL1 (human)): 102%
residual activity (MAPK1 (human)): 93.5%
residual activity (MAP2K1 (human)): 93.2%
residual activity (PHKG1 (human)): 89%
residual activity (MARK4 (human)): 91.6%
residual activity (ALK (human)): 85.2%
residual activity (MAP3K14 (human)): 109%
residual activity (MAPK9 (human)): 67.5%
residual activity (PIM3 (human)): 3.74%
residual activity (EPHA1 (human)): 95.5%
residual activity (MAP2K2 (human)): 76.2%
residual activity (ITK (human)): 98.8%
residual activity (PIM1 (human)): 11.6%
residual activity (PTK2B (human)): 98.7%
residual activity (EPHB3 (human)): 91%
residual activity (DCLK2 (human)): 96%
residual activity (HIPK1 (human)): 109%
residual activity (MINK1 (human)): 93.3%
residual activity (BRSK1 (human)): 92.7%
residual activity (DSTYK (human)): 93.4%
residual activity (OXSR1 (human)): 99%
residual activity (BLK (human)): 102%
residual activity (SGK2 (human)): 100%
residual activity (CDK5 CDK5R1 p25 (human); ATP 10 µM): 90%
residual activity (GRK4 (human)): 103%
residual activity (NEK6 (human)): 101%
